Reference: US8912188B2, “Substituted quinoxaline carboxylic acids for the inhibition of PASK” (BioEnergenix, LLC, priority 2011, dated 2014)

Molecular target: T1, PASK (Invitrogen) (Homo sapiens, UniProt Q96RG2)
T1 construct: IC50 Kinase Domain; purchased Invitrogen
Test: PAS Kinase FRET Assay
Format: biochemical
Settings: PAS kinase TR-FRET assay (665 nm/615 nm), 2 hours at 25° C.; read-out: IC50 Kinase Domain
From the text: Biochemical Assay for hPASK Activity
The aim of the FRET assay is to determine the inhibition potential of test compounds on targeted kinase. This assay platform provides a homogenous screening method for measuring kinase activity by quantitating the amount of phospho-substrate in solution following a kinase reaction.
In the presence of kinase and ATP, the Ulight-peptide is phosphorylated and captured by an anti-phospho-substrate antibody, which brings the Eu chelate donor and Ulight acceptor dyes into close proximity.
Titration of kinase at 1 mM ATP was achieved via the following protocol. […] The contents of the plate were incubated at RT for 1 h. The reaction was stopped by adding 5 μl of stop solution to each test well followed by mixing and incubation at RT for 10 minutes. 5 μl of detection mix (detection antibody diluted in detection buffer) was added; the contents of the plate were mixed and then incubated in the dark for 1 hour at RT. […] The results were graphed to calculate the EC50.
Titration of ATP at the EC50 concentration of kinase to determine ATP Km,app. was performed using the following method. […] The contents of the plate were and incubated at RT for 1 h. The reaction was stopped by adding 5 μl of stop solution to each test well followed by mixing and incubation at RT for 10 minutes. […] (detection antibody diluted in detection buffer) was added; the contents of the plate were mixed and then incubated in the dark for 1 hour at RT. […] The results were graphed to calculate the EC50 as the ATP Km,app.
Compound screening was done via the following method. 10 mM stock solution of test compound in DMSO was prepared by dissolving test compound in DMSO at RT for 1 hour, and then sonicating at 100% output for 8 minutes. If compound is not soluble under this condition, it was diluted to 3 mM. Kinase reaction buffer was prepared containing 10 mM MgCl2, 50 mM HEPES, 1 mM EGTA, 0.01% TWEEN-20, 2 mM DTT. […] As a positive control, 2.5 μl of positive compound was added to assay wells, and 2.5 μl of DMSO to assay wells as vehicle control. Kinase solution was prepared in reaction buffer at 2× final assay concentration. Kinase solution (5 μl) was added to each well of the assay plate. The substrate and ATP solution was prepared in kinase reaction buffer at 4× final assay concentration. The kinase reaction was started by adding 2.5 μl of substrate+ATP mix solution to each well of the assay plate. The plate is mixed on a plate shaker; then covered and allowed to react for 2 hours in the dark at 25° C. without shaking. The reaction was stopped by adding 5 μl of stop solution to each test well followed by mixing and incubation at RT for 10 minutes in the dark. 5 μl of detection mix (detection antibody diluted in detection buffer) was added; the contents of the plate were mixed and then incubated in the dark for 1 hour at RT.

T1 sequence (Q96RG2 999-1251 limits assumed): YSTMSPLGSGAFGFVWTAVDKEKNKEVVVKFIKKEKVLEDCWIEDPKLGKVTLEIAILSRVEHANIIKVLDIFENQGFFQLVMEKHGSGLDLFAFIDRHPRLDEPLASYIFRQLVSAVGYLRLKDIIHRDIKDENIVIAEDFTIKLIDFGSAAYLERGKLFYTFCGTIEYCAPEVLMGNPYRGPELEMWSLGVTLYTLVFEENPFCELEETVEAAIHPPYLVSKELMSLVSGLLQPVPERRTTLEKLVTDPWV

IC50 [µM]	SMILES
< 10	CC(C)N(C)c1nc2cc(C(=O)O)ccc2nc1-c1ccc2ncccc2c1 [Example 46, 3-(Isopropyl(methyl)amino)-2-(quinolin-6-yl)quinoxaline-6-carboxylic acid]
< 10	C[C@H]1CCCN1c1nc2cc(C(=O)O)ccc2nc1-c1ccc2[nH]ncc2c1 [Example 47, 2-(1H-Indazol-5-yl)-3-[(2S)-2-methylpyrrolidin-1-yl]quinoxaline-6-carboxylic acid]
< 10	CN(c1nc2cc(C(=O)O)ccc2nc1-c1cc2ccc(F)cc2o1)C1CC1 [Example 49, 3-(Cyclopropyl(methyl)amino)-2-(6-fluorobenzofuran-2-yl)quinoxaline-6-carboxylic acid]
< 10	CC(C)N(C)c1nc2cc(C(=O)O)ccc2nc1-c1ccc2oncc2c1 [Example 50, 2-(1,2-Benzoxazol-5-yl)-3-[methyl(propan-2-yl)amino]quinoxaline-6-carboxylic acid]
< 10	O=C(O)c1ccc2nc(-c3cc4ccccc4s3)c(N3CCCCC3)nc2c1 [Example 53, 2-(Benzo[b]thiophen-2-yl)-3-(piperidin-1-yl)quinoxaline-6-carboxylic acid]
< 10	O=C(O)c1ccc2nc(-c3cc4ccccc4s3)c(N3CCCCCC3)nc2c1 [Example 54, 3-(Azepan-1-yl)-2-(benzo[b]thiophen-2-yl)quinoxaline-6-carboxylic acid]
< 10	CC(C)N(C)c1nc2cc(C(=O)O)ccc2nc1-c1ccc2scnc2c1 [Example 56, 2-(Benzo[d]thiazol-5-yl)-3-(isopropyl(methyl)amino)quinoxaline-6-carboxylic acid]
< 10	CC(C)N(C)c1nc2cc(C(=O)O)ccc2nc1-c1nc2ccccc2s1 [Example 58, 2-(1,3-Benzothiazol-2-yl)-3-[methyl(propan-2-yl)amino]quinoxaline-6-carboxylic acid]
< 10	C[C@H]1CCCN1c1nc2cc(C(=O)O)ccc2nc1-c1nc2ccccc2s1 [Example 59, 2-(1,3-Benzothiazol-2-yl)-3-[(2S)-2-methylpyrrolidin-1-yl]quinoxaline-6-carboxylic acid]
< 10	CC(C)N(C)c1nc2cc(C(=O)O)ccc2nc1-c1ccc2nccnc2c1 [Example 60, 3-(isopropyl(methyl)amino)-2,7′-biquinoxaline-6-carboxylic acid]
< 10	O=C(O)c1ccc2nc(-c3cc4cc(F)ccc4o3)c(N3CCCC3)nc2c1 [Example 62, 2-(5-Fluoro-1-benzofuran-2-yl)-3-(pyrrolidin-1-yl)quinoxaline-6-carboxylic acid]
< 10	O=C(O)c1ccc2nc(-c3ccc4[nH]ccc4c3)c(N3CCCCC3)nc2c1 [Example 65, 2-(1H-Indol-5-yl)-3-(piperidin-1-yl)quinoxaline-6-carboxylic acid]
< 10	COC[C@H]1CCCN1c1nc2cc(C(=O)O)ccc2nc1-c1ccc2[nH]ccc2c1 [Example 67, 2-(1H-Indol-5-yl)-3-[(2R)-2-(methoxymethyl)pyrrolidin-1-yl]quinoxaline-6-carboxylic acid]
< 10	CC(C)Nc1nc2cc(C(=O)O)ccc2nc1-c1cc2ccccc2o1 [Example 70, 2-(1-Benzofuran-2-yl)-3-[(propan-2-yl)amino]quinoxaline-6-carboxylic acid]
< 10	C[C@H]1CCCN1c1nc2cc(C(=O)O)ccc2nc1-c1ccoc1 [Example 78, 2-(Furan-3-yl)-3-[(2S)-2-methylpyrrolidin-1-yl]quinoxaline-6-carboxylic acid]
< 10	C[C@H]1CCCN1c1nc2cc(C(=O)O)ccc2nc1-c1coc2ccccc12 [Example 82, 2-(1-Benzofuran-3-yl)-3-[(2S)-2-methylpyrrolidin-1-yl]quinoxaline-6-carboxylic acid]
< 10	CC(C)N(C)c1nc2cc(C(=O)O)ccc2nc1-c1occc1-c1ccccc1 [Example 83, 3-[Methyl(propan-2-yl)amino]-2-(3-phenylfuran-2-yl)quinoxaline-6-carboxylic acid]

IC50 [µM]	SMILES
< 10	CC(C)N(C)c1nc2cc(C(=O)O)ccc2nc1-c1ccc(-c2ccc(F)cc2)o1 [Example 84, 2-[5-(4-Fluorophenyl)furan-2-yl]-3-[methyl(propan-2-yl)amino]quinoxaline-6-carboxylic acid]
< 10	CC(C)N(C)c1nc2cc(C(=O)O)ccc2nc1-c1cnn(C)c1 [Example 90, 3-[Methyl(propan-2-yl)amino]-2-(1-methyl-1H-pyrazol-4-yl)quinoxaline-6-carboxylic acid]
< 10	CC(C)N(C)c1nc2cc(C(=O)O)ccc2nc1-c1cnn(-c2ccccc2)c1 [Example 91, 3-[Methyl(propan-2-yl)amino]-2-(1-phenyl-1H-pyrazol-4-yl)quinoxaline-6-carboxylic acid]
< 10	C[C@H]1CN(c2ccccn2)CCN1c1nc2cc(C(=O)O)ccc2nc1-c1ccc2[nH]ncc2c1 [Example 92, (S)-2-(1H-indazol-5-yl)-3-(2-methyl-4-(pyridin-2-yl)piperazin-1-yl)quinoxaline-6-carboxylic acid]
< 10	CC(C)N(C)c1nc2cc(C(=O)O)ccc2nc1-c1ccc2[nH]nnc2c1 [Example 94, 2-(1H-Benzo[d][1,2,3]triazol-5-yl)-3-(isopropyl(methyl)amino)quinoxaline-6-carboxylic acid]
> 10	CC(C)N(C)c1nc2cc(C(=O)O)ccc2nc1-c1ccc2c(c1)nnn2C [Example 95, 3-(Isopropyl(methyl)amino)-2-(1-methyl-1H-benzo[d][1,2,3]triazol-5-yl)quinoxaline-6-carboxylic acid]
< 10	C[C@H]1CCCN1c1nc2cc(C(=O)O)ccc2nc1-c1ccc2[nH]nnc2c1 [Example 96, (S)-2-(1H-Benzo[d][1,2,3]triazol-5-yl)-3-(2-methylpyrrolidin-1-yl)quinoxaline-6-carboxylic acid]
< 10	CN(Cc1ccccc1)c1nc2cc(C(=O)O)ccc2nc1-c1ccc2[nH]ncc2c1 [Example 97, 3-(Benzyl(methyl)amino)-2-(1H-indazol-5-yl)quinoxaline-6-carboxylic acid]
< 10	C[C@@H](c1ccccc1)N(C)c1nc2cc(C(=O)O)ccc2nc1-c1ccc2[nH]ncc2c1 [Example 98, (S)-2-(1H-Indazol-5-yl)-3-(methyl(1-phenylethyl)amino)quinoxaline-6-carboxylic acid]
< 10	Cc1cc2cc(-c3nc4ccc(C(=O)O)cc4nc3N3CCN(c4ccccn4)C[C@@H]3C)ccc2[nH]1 [Example 99, (S)-2-(2-Methyl-1H-indol-5-yl)-3-(2-methyl-4-(pyridin-2-yl)piperazin-1-yl)quinoxaline-6-carboxylic acid]
< 10	O=C(O)c1ccc2nc(-c3ccc(F)cc3)c(N3CCC[C@@H]3C(F)(F)F)nc2c1 [Example 101, (R)-2-(4-Fluorophenyl)-3-(2-(trifluoromethyl)pyrrolidin-1-yl)quinoxaline-6-carboxylic acid]
< 10	CN(c1nc2cc(C(=O)O)ccc2nc1-c1ccc(F)cc1)C1CCOCC1 [Example 102, 2-(4-Fluorophenyl)-3-(methyl(tetrahydro-2H-pyran-4-yl)amino)quinoxaline-6-carboxylic acid]
< 10	Cc1ccccc1N(C)c1nc2cc(C(=O)O)ccc2nc1-c1ccc(F)cc1 [Example 109, 2-(4-Fluorophenyl)-3-(methyl(o-tolyl)amino)quinoxaline-6-carboxylic acid]
< 10	CC(C)(C)Nc1nc2cc(C(=O)O)ccc2nc1-c1ccc(F)cc1 [Example 110, 3-(tert-Butylamino)-2-(4-fluorophenyl)quinoxaline-6-carboxylic acid]
< 10	C[C@H]1CNCCN1c1nc2cc(C(=O)O)ccc2nc1-c1ccc(F)cc1 [Example 114, 2-(4-Fluorophenyl)-3-[(2S)-2-methylpiperazin-1-yl]quinoxaline-6-carboxylic acid]
< 10	Cc1cc(F)ccc1-c1nc2ccc(C(=O)O)cc2nc1N1CCC[C@@H]1C [Example 117, (S)-2-(4-Fluoro-2-methylphenyl)-3-(2-methylpyrrolidin-1-yl)quinoxaline-6-carboxylic acid]

SMILES	IC50 [µM]
CN(c1nc2cc(C(=O)O)ccc2nc1-c1ccc(F)cc1)C1CCNCC1 [Example 103, 2-(4-Fluorophenyl)-3-(methyl(piperidin-4-yl)amino)quinoxaline-6-carboxylic acid]	< 10
